Source: patent US20260191968A1, “PROTAC DEGRADERS OF MLLT1 AND/OR MLLT3” (DARK BLUE THERAPEUTICS LTD, priority 2024, published 2026)

Key:
MLLT3 = molecular target: T1, MLLT3 (Mus musculus, UniProt A2AM29); test: MLLT3 degradation assay in NIH/3T3 cells (JESS), dose response, 5 h; type: cell-based
T1 construct: host or cells: NIH/3T3
T1 sequence (A2AM29 1-569): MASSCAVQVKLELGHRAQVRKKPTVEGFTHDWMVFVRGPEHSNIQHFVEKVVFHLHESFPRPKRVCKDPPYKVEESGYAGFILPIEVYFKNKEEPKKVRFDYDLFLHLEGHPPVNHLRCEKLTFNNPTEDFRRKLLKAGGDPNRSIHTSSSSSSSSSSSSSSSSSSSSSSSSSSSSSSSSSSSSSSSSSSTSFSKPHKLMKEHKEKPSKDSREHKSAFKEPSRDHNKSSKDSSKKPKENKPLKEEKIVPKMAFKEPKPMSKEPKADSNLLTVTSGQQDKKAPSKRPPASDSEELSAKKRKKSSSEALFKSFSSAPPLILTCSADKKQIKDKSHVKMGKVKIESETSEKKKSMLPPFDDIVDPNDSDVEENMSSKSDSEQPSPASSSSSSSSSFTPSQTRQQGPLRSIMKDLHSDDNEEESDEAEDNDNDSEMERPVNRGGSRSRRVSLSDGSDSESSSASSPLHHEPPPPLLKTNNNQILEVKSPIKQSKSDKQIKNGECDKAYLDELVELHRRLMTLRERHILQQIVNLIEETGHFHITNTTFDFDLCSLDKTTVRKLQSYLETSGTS
Description: MLLT3 degradation efficacy of compounds was tested in an automated chemiluminescent detection system (JESS, Cat #004-650). NIH/3T3 (#CRL-1658, ATCC) were seeded at a density of 0.5 million cells/well in a cell culture treated 6-well cell culture plate in 2 mL of complete medium (DMEM+10% FBS+IX Penicillin-Streptomycin) and incubated at 37° C., 5% CO2. The next day, 10 mM DMSO stocks were prepared, and cells were treated with eight concentrations of test compounds, starting from 100 nM, 5-fold dilution, at a final DMSO concentration of 0.1% and incubated for 5 h at 37° C., 5% CO2. Post incubation, cells were washed with HBSS and lysed in 70 μL of RIPA buffer supplemented with Protease inhibitors (sc-24948; Santa Cruz). Later, protein estimation was done using BCA protein assay kit (23228; Pierce). 4 μg protein lysate (4 μL of 1 μg/μL lysate) was loaded into each well of the JESS cartridge (SM-W004; Bio-techne) and the JESS run was performed using 1:200 dilution of anti-mouse MLLT3 antibody (#47577; CST) and 1:800 dilution of anti-human GAPDH antibody (2118; Cell signaling technology) with anti-rabbit secondary detection module (DM-001; Bio-Techne). Post run, data was analysed using “Compass for SW” software for chemiluminescent detection. Peak fit was done using “dropped lines” method. […]

MLLT1 = molecular target: T2, MLLT1 (Homo sapiens, UniProt Q03111); test: MLLT1 degradation assay in MV4-11 cells (JESS chemiluminescent detection), three concentrations, 24 h; type: cell-based; conditions: with respect to DMSO control
T2 construct: host or cells: MV4-11
T2 sequence (Q03111 1-559): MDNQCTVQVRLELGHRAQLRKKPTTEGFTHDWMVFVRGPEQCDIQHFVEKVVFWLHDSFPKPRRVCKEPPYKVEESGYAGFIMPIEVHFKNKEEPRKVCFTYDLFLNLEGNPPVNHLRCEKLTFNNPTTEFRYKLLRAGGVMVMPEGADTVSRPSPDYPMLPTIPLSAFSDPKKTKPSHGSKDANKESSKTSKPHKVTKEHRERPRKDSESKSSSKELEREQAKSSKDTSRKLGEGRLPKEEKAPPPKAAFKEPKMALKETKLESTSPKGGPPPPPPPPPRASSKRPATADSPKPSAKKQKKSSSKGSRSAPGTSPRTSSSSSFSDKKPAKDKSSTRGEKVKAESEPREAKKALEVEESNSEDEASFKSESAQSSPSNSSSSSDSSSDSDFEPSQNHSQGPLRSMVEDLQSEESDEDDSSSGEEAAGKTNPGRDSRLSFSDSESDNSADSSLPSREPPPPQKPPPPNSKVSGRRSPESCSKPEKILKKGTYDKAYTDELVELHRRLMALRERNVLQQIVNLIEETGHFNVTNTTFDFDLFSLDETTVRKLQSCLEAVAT
Outline: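 MV4-11 cells treated 24 h at 37° C, 5% CO2 with 1000, 100 and 10 nM compound (0.1% DMSO final). MLLT1 quantified by automated capillary chemiluminescent immunodetection; band peak area expressed as % degradation relative to DMSO control.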

SMILES: CN1CCC[C@@H]1c1cc2cnc(NC(=O)c3ccc(CCCC#Cc4cccc5c4CN(C4CCC(=O)NC4=O)C5=O)cc3)cc2[nH]1 (stereo partly drawn) [Example 55, 4-(5-(2-(2,6-dioxopiperidin-3-yl)-1-oxoisoindolin-4-yl)pent-4-yn-1-yl)-N-(2-((R)-1-methylpyrrolidin-2-yl)-1H-pyrrolo[3,2-c]pyridin-6-yl)benzamide]
- DC50 (MLLT3): 0.8 nM
- Dmax (MLLT3; NIH3T3, maximum % degradation observed): 92%
- MLLT1% Degradation @ 0.01 μM (MLLT1; 0.01 μM): A (Category A: A ≥ 75% degradation)
- MLLT1% Degradation @ 0.1 μM (MLLT1; 0.1 μM): A (Category A: A ≥ 75% degradation)
- MLLT1% Degradation @ 1 μM (MLLT1; 1 μM): A (Category A: A ≥ 75% degradation)
